ΔE data for five molecules are collected here from patent publication US20020016279A1, “Enzymatic oxidation composition and process” (Unilever Home & Personal Care USA, Division of Conopco, Inc., priority 2000, published 2002).

The assay in a line: Stain bleach performance of the peroxidase/enhancer system on tomato stains (wash test, no hydrogen peroxide added). As to the method: The potential of the enzymatic bleach system, consisting of a peroxidase enzyme and an enhancer, to bleach stains was assessed by washing cotton swatches soiled with tomato stains. The experiments were performed in 1 l beakers, to which 800 ml of wash solution were added. […]
The swatches were washed during 30 minutes at 30° C. After the wash, the swatches were tumble-dried and the reflectance spectra were measured using a Minolta spectrometer. The color differences between the swatch before and after the wash data were expressed in the CIELAB L*a*b* color space. In this color space, L* indicates lightness and a* and b* are the chromaticity coordinates. Color differences between two swatches are expressed as ΔE, which is calculated from the following equation:
ΔE={square root}{square root over (ΔL^2+Δa^2+Δb^2)}

Setting [1] is: cotton swatches soiled with tomato stains, enhancer 250 μM, peroxidase from Arthromyces ramosus 50 μg/l, wash solution 2 g/l, pH 10.5, 30 minutes at 30° C, no enhancer: 6.5.

Where a name gives a salt, the structure may show the parent alone.

Consider `O=C(NNc1ccccc1)c1ccccc1` [2′-phenylbenzohydrazide], for which the ΔE under setting [1] is 7.4. As to `Nc1ccc(S(=O)(=O)NNC(=O)C(=O)NNc2ccccc2)cc1` [Ethanedioic acid, 2-[(4-aminophenyl)sulfonyl]-hydrazide-2-phenylhydrazide], the ΔE runs as follows: (Example 2, enhancer 50 μM, peroxidase 5 mg/l, tomato stains, peroxidase without enhancer 7.7) 8.3; (Example 2, enhancer 100 μM, peroxidase 5 mg/l, tomato stains, peroxidase without enhancer 7.7) 9.0; (Example 2, enhancer 200 μM, peroxidase 5 mg/l, tomato stains, peroxidase without enhancer 7.7) 9.6; (Example 2, enhancer 200 μM, peroxidase None, tomato stains, None/None control 7.5) 7.4; under setting [1], 8.1. On to `CCOC(=O)C(=O)NNc1cccc(Cl)c1` [Ethyl [2-(3-chlorophenyl)]hydrazide oxalate], for which, under setting [1], the ΔE came out at 7.8. In the case of `COC(=O)C(=O)NNc1ccccc1` [Methyl [2-phenyl]hydrazide oxalate], under setting [1], the ΔE was found to be 9.8. The same measure, in the same setting: the value for `CCCOC(=O)C(=O)NNc1ccccc1` [Propyl [2-phenyl]hydrazide oxalate] was 9.8.
